The results in this text go back to paper PMC10824269 (Journal of the American Chemical Society, 2021).

SMILES strings stand for the structures.

This experiment deals with GsTyDC/DDC (Gloriosa superba, UniProt A0A7D5Q853). In kind it is cell-based. The conditions noted are these: leaves of N. benthamiana.

As to `N[C@@H](Cc1ccc(O)c(O)c1)C(=O)O` [L-DOPA], the “LC-MS, transient expression in N. benthamiana” value is recorded as “GsTyDC/DDC is capable of acting on act on either L-Tyr or L-DOPA (Figure S15)”.
